Measured values as given in patent US12343324B2, “Dihydromyricetin hot melt extrusion formulations and methods for forming them” (The Trustees of Princeton University, priority 2018, dated 2025).
In brackets after ≈: the same amount, converted by molar mass.

Legend:
[1] = Equilibrium solubility in fasted state simulated intestinal fluid (FaSSIF); type: physicochemical; conditions: thermodynamic from solid, pH 6.5, 37° C., read-out: equilibrium solubility of crystalline DHM in FaSSIF
[2] = Equilibrium solubility in fed state simulated intestinal fluid (FeSSIF); type: physicochemical; conditions: thermodynamic from solid, pH 5.0, 37° C., read-out: equilibrium solubility of crystalline DHM in FeSSIF
[3] = reference [31]; cited from earlier work

For `O=C1c2c(O)cc(O)cc2O[C@H](c2cc(O)c(O)c(O)c2)[C@H]1O` [DHM, dihydromyricetin], the solubility thermodynamic [1] is listed as about 50 µg/mL (≈ 156 µM), the solubility thermodynamic [2] is listed as about 140 µg/mL (≈ 437 µM) and the oral bioavailability [3] is listed as “less than 5%”.
